The subject of one data set is HUVEC. Put plainly: Antiproliferative activity against HUVEC cells after 72 hrs. It counts as functional. The note with it: Homo sapiens.
A further data set has as its system K562. The data set can be described thus: Antiproliferative activity against human K562 cells after 72 hrs. It counts as functional. Particulars: K562, 72 h.
Data set [1] in a line: Cytotoxicity against human HeLa cells assessed as cell death. It counts as cell-based.

Each structure is given as a SMILES string.

A word on the GI50: it is the concentration at which growth is held to half of that of the control. Read a low GI50 as greater sensitivity of the cells. One may read the CC50 as the concentration giving 50% cytotoxicity. With `CC(=O)/C(C)=C/C=C/C=C\C=C\C=C\C=C\C=C\C=C/CC(=O)O`, the GI50 in the data set on HUVEC came out at 71.6 µM; with K562, 15.4 µM. In addition, the 50% cytotoxic concentration (CC50) in data set [1] is 44.1 µM.

Take `CC(=O)/C(C)=C/C=C/C=C\C=C\C=C\C=C\C=C\C=C/C=C/CC(=O)O`: the 50% growth inhibitory concentration (GI50) in the data set on HUVEC worked out at 17.4 µM; in the data set with K562, 1.1 µM. Further, the CC50 in data set [1] was 45.1 µM. Take `CC(=O)[C@]1(O)Cc2c(O)c3c(c(O)c2[C@@H](O[C@H]2C[C@H](N)[C@H](O)[C@H](C)O2)C1)C(=O)c1ccccc1C3=O` [IDARUBICIN]: the 50% growth inhibitory concentration (GI50) with K562 was determined as 3.3 µM.

In turn, `CCc1c2c(nc3ccc(OC(=O)N4CCC(N5CCCCC5)CC4)cc13)-c1cc3c(c(=O)n1C2)COC(=O)[C@]3(O)CC` [IRINOTECAN] came in with a GI50 in the data set on K562 of 1.9 µM. Turning to `CC/C(=C(\c1ccccc1)c1ccc(OCCN(C)C)cc1)c1ccccc1` [TAMOXIFEN], in the data set with K562, the 50% growth inhibitory concentration (GI50) is 5.2 µM.

For the origin of these results see ChEMBL document CHEMBL3352802, “Injury-induced biosynthesis of methyl-branched polyene pigments in a white-rotting basidiomycete” (J Nat Prod, 2014).
